Experimental findings from patent publication US20030202977A1, “Treatment of osteoarthritis” (New York University, priority 1998, published 2003) are described below.

The test system of test [1] is human osteoarthritis-affected cartilage. In words: Osteoarthritis-explant assay: release of inflammatory mediators from cartilage organ cultures. It counts as cell-based. The note with it: for Effect on PGE2 production / Effect on NO production/accumulation: osteoarthritis-affected cartilage; for Effect on NO production/accumulation: compared to control cartilage; for Nitrite / PGE2: per 100 mg cartilage, 72 hours post stimulation, mean ± S.D., n=3; for Nitrite: JBS5 0.5 μg/ml, αvβ3 Abs 5 μg/ml, L-NMMA 500 μM, IL-1β 1 ng/ml, RGD or RGE 1 mg/ml, control 1.2 ± 0.2; for PGE2: control 13.1 ± 0.2. The source says: ELISA kits for IL-1β, IL-6 and IL-8 were purchased from R and D (Minneapolis, Minn.). Cyclic RGD and RGE peptides were procured form Bachem Biosciences, Inc. (King of Prussia, Pa.). Anti-αvβ3 (JBS5) and anti-3 (LM609) were purchased from Chemicon International (Temecula, Calif.). Another anti-αvβ3 antibody (mAb13) was a generous gift from Dr. Yamada (NIH, Bethesda, Md.).
Cartilage slices were taken from the knees of patients who had been diagnosed with advanced osteoarthritis, ages 50-70 years, who were undergoing knee replacement surgery. Non-arthritic knee cartilage, normal control, ages 20-70 years, was obtained from patients with fractures or from accident victims after knee amputation.
Knee articular cartilage from osteoarthritis patients or normal individuals was cut into 3 mm discs, and 4-6 discs were placed (triplicate or quadruplicate) into a 24-well plate containing 2 ml F-12 medium+0.1% human albumin in the presence or absence of anti-αvβ3 (JBS5) or anti-3 (LM609) antibodies along with various modulators, as previously described by Amin et al (1995 and 1997).
(§1) NO production was measured by estimating the stable NO metabolite, nitrite, in condition medium by modified Griess reaction, Gilliam et al (1993). PGE2 was analyzed from supernatant by RIA, Amin et al (1997).
OA-affected cartilage was incubated in the medium with various modulators: 0.5 μg/ml of α5β1 (JBS5), 5 μg/ml αvβ3 Abs, L-NMMA (500 μM), IL-1β (1 ng/ml), 1 mg/ml of RGD or RGE. The accumulation of IL-1β, IL-8, IL-6, nitrite and PGE2 were estimated 72 hours post stimulation. Data represents±S.D. where n=3. The P values described are compared with the (control) unstimulated OA-affected cartilage. The data represent one of the two similar experiments.

Test [2] concerns primary bovine chondrocytes. Kind of test: NO and PGE2 production in primary bovine chondrocytes. The test is classed as cell-based. As to the method: Bovine chondrocytes were seeded in 24 well plates at a density of 0.5×10^6 cells/well in 2 ml medium. After 24 hours post-seeding, the cells were treated with either 50 ng of JBS5 monoclonal antibody or 1 ng/ml IL-1β alone and in the presence and absence of 0.5 μg/ml of sIL-1RII for 72 hours. NO and PGE2 were estimated as described in Materials and Methods. The data present one of the two similar experiments. Data represent mean±s.d. value. The p values described are compared with IL-l (*) or anti-α5β1 monoclonal antibody (**); *p≦0.01, **p≦0.01.
Bovine chondrocytes were seeded in 24 well plates and stimulated with 1 ng/ml Il-1β, 100 μg/ml LPS, IL-1β+LPS+TNFα and anti-α5β1 monoclonal antibody in the presence or absence of 5 μg/ml anti-αvβ3. The accumulation of NO and PGE2 was estimated at the end of 72 hours. The data represent one of the two similar experiments the data represent mean±s.d. value.
Bovine chondrocytes were isolated as previous described by Attur et al 1998. Briefly, cartilage slices from bovine cartilage were finely minced and digested sequentially with 0.2% testicular hyaluronidase for five minutes at 37° C., and 0.2% collagenase for 1-2 hours at 37° C. After being strained through sterile nylon mesh, the cells were centrifuged at 1200×g for ten minutes. The cell pellets were washed twice with Ham's F-12 medium, followed by resuspension and centrifuging at 1000×g for ten minutes. Finally, the pellets were suspended in complete F-12 medium before being plated to flasks.
as §1

The target of test [3] is α5β1 integrin of human cartilage chondrocytes (human) (UniProt P08648). In words: cell-based or functional assay.
In a further test the test system is chondrocytes. In words: Nitric oxide versus PGE2 production in chondrocytes. The test is classed as cell-based.

Marks after values point to notes of the source that are not given here.

UniProt P08648, sequence (P08648 42-1049, chain 1 of 2): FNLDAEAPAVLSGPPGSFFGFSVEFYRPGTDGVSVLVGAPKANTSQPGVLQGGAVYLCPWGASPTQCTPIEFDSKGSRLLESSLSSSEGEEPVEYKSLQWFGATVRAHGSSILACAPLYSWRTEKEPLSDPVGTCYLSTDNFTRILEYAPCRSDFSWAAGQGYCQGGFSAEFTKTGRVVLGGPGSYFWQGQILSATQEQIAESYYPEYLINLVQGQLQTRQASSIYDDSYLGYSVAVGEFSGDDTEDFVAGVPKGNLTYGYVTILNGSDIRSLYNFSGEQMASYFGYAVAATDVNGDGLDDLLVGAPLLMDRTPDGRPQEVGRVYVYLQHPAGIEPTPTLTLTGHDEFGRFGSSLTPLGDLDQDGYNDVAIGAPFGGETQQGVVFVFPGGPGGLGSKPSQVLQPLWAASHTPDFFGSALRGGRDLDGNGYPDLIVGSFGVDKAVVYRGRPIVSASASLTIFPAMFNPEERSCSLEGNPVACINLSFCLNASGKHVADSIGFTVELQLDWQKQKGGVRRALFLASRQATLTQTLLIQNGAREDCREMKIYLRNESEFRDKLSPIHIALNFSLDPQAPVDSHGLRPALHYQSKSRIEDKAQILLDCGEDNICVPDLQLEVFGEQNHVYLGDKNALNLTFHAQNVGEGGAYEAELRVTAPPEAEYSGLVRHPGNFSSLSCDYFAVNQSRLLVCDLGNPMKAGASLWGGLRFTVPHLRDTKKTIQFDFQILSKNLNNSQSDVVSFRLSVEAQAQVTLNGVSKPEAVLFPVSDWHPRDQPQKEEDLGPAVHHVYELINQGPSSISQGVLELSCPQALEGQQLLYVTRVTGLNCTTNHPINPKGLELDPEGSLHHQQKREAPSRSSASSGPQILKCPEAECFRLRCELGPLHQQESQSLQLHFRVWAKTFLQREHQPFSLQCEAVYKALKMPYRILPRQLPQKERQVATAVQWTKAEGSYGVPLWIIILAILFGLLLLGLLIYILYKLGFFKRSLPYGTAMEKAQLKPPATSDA
UniProt P08648, sequence (P05556 21-798, chain 2 of 2, further chain): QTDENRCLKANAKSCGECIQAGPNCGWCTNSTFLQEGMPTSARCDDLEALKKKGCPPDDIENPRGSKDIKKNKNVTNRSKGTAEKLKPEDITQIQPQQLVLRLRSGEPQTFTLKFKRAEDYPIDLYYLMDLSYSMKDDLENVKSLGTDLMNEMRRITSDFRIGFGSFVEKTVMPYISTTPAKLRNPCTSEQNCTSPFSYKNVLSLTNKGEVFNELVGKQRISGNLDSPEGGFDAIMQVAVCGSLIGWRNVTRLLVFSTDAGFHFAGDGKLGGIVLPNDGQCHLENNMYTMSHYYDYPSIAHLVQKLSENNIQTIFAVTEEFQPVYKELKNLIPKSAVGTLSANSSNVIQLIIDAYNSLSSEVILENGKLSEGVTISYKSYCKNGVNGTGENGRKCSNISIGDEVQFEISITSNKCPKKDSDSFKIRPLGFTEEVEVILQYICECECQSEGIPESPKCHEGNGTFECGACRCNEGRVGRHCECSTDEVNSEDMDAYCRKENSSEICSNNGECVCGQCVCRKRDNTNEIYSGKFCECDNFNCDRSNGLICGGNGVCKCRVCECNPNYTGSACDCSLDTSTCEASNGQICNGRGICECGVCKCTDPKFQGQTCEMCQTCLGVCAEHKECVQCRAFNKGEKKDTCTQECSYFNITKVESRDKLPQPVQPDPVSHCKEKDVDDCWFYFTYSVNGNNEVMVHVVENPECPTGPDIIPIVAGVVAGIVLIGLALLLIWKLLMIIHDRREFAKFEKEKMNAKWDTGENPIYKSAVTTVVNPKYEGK

Regarding `CNC(=N)NCCC[C@H](N)C(=O)O` [NMMA], in test [1], the “Effect on PGE2 production” value was “augmented”, the “Effect on NO production/accumulation” value is on record as “inhibition”, the Nitrite is reported as 0.8 ± 0.1^c μM and the PGE2 is 18.4 ± 0.8^c ng/ml.

Take “IL-1β: cytokine used as positive control, 1 ng/ml”: in test [1], the “Effect on PGE2 production” value is “augmented”, the “Effect on NO production/accumulation” value is “augmented”, the Nitrite is reported as 17.3 ± 2.4^a μM and the PGE2 is recorded as 29.6 ± 7.2^c ng/ml. Besides, the “Effect on NO and PGE2 (inflammatory mediator) production, substance added as modulator” value in test [2] (primary bovine chondrocytes) was “up-regulation”.

For JBS5 monoclonal antibody, in test [3], the IL-1β, human OA-affected cartilage explants, 72 h, 0.5 µg/ml JBS5 (pg/ml per 100 mg cartilage) amounted to 87.6; the IL-6, human OA-affected cartilage explants, 72 h, 0.5 µg/ml JBS5 (ng/ml per 100 mg cartilage) amounted to 17.7; the IL-8, human OA-affected cartilage explants, 72 h, 0.5 µg/ml JBS5 (ng/ml per 100 mg cartilage) was determined as 17.7; the Nitrite, human OA-affected cartilage explants, 72 h, 0.5 µg/ml JBS5 (µM per 100 mg cartilage) was 12.7. In test [3], this molecule displayed a PGE2, human OA-affected cartilage explants, 72 h, 0.5 µg/ml JBS5 (ng/ml per 100 mg cartilage) of 19.1.

For the molecule “osteopontin: soluble secretory phosphoprotein, ligand of αvβ3”, the “Effect on NO production/accumulation” value in test [1] is recorded as “inhibited”. For the same molecule, in the test on chondrocytes, the “Inhibition of PGE2 production relative to nitric oxide production” value is on record as “equally inhibit”.

B1: sIL-1RII: recombinant soluble type II IL-1 receptor cloned from human neutrophils, released from Sf9 insect cells (protein)
chain: FTLQPAAHTGAARSCRFRGRHYKREFRLEGEPVALRCPQVPYWLWASVSPRINLTWHKNDSARTVPGEEETRMWAQDGALWLLPALQEDSGTYVCTTRNASYCDKMSIELRVFENTDAFLPFISYPQILTLSTSGVLVCPDLSEFTRDKTDVKIQWYKDSLLLDKDNEKFLSVRGTTHLLVHDVALEDAGYYRCVLTFAHEGQQYNITRSIELRIKKKKEETIPVIISPLKTISASLGSRLTIPCKVFLGTGTPLTTMLWWTANDTHIESAYPGGRVTEGPRQEYSENNENYIEVPLIFDPVTREDLHMDFKCVVHNTLSFQTLRTTVKE
B1: the “Effect on production of IL-1, nitric oxide, PGE2, IL-6, IL-8 and MMPs” value in test [1] (human arthritis affected cartilage, ex vivo, in the presence or absence of IL-1) was “inhibits”. Moreover, the “Effect on IL-1β and JBS5 monoclonal antibody induced NO and PGE2 production” value in test [1] (osteoarthritis cartilage explants, FIG. 1b) is reported as “inhibited significantly”. Also, the “Effect on IL-1β induced accumulation of NO and PGE2” value in test [2] (preincubation of cells for fifteen minutes) was “blocked”. Further, in test [2] (preincubation of cells for fifteen minutes, inducer is JBS5), the “Effect on anti-αvβ3 monoclonal antibody induced production of NO and PGE2” value was “blocked”.
